Results from patent publication US20060106207A1, “Nucleotide sequences that encode deregulated phosphoglycerate dehydrogenases of coryneform bacteria and method for producing l-serine” (Forschungszentrum Julich GMBH, priority 2002, published 2006).

B1: serAΔ197: serA allele coding for PGD with deletion of 197 C-terminal amino acids, SEQ ID No. 1 / 7 (protein, listed as Corynebacterium glutamicum)
chain: MSQNGRPVVLIADKLAQSTVDALGDAVEVRWVDGPNRPELLDAVKEADALLVRSATTVDAEVIAAAPNLKIVGRAGVGLDNVDIPAATEAGVMVANAPTSNIHSACEHAISLLLSTARQIPAADATLREGEWKRSSFNGVEIFGKTVGIVGFGHIGQLFAQRLAAFETTIVAYDPYANPARAAQLNVELVELDELMSRSDFVTIHLPKTKETAGMFDAQLLAKSKKGQIIINAARGGLVDEQALADAIESGHIRGAGFDVYSTEPCTDSPLFKLPQVVVTPHLGASTEEAQDRAGTDVADSVLKALAGEFVADAVNVSGGRVGEEVAVWMDLA

Columns and labels:
Assay type in all cases: biochemical, Corynebacterium glutamicum
[1] = system: Wild Type 3-Phosphoglycerate-Dehydrogenase of C. glutamicum; test: Inhibition of wild type 3-phosphoglycerate-dehydrogenase by L-serine in cell-free extracts
Protocol: (§1) The cells were harvested in the exponential growth phase at OD600 of 5 to 8 and washed twice in 100 mM Tris-HCl, pH 7.5. The cell pellets were then frozen at −20° C. until disintegration. The frozen cell pellets were moisturized on ice and resuspended with 2 ml cold Tris-HCl pH 7.5/10% glycerine in a Brenson sonifier for 10 minutes. Then the cell fragments were separated by centrifugation at 13000 rpm and 4° C. in a Sigma -202 MK centrifuge. The thus obtained supernatant is desalted as a raw extract initially on a PD-10 column using the conditions set by the manufacturer (Amersham Pharmacia Biotech) and then immediately subjected to enzyme measurement. The enzyme test relied upon the photometric detection of the formation of NADH in the reaction of 3-phosphoglycerate and NAD to NADH.
In the following tests were made whether the C-terminus foreshortened mutant serAΔ197 was no longer blocked by L-serine. For that purpose initially the inhibition of the 3-phosphoglycerate-dehydrogenase of the wild type was investigated in cell-free extracts of C. glutamicum by L-serine based upon the above described enzyme tests. For that purpose to the test bath were added 1, 5 and 10 mM L-serine and were incubated for 5 minutes at 30° C. The reaction was then started by the addition of 15 mM […]. The incubation was necessary in order to be able to detect an inhibition (Table 4). This time dependency of the L-serine inhibition which required several minutes of incubation before a constant level of inhibition was reached has also been described for other 3-phosphoglycerate-dehydrogenase, for example for the purified enzyme of B. subtilis (Saski R. and Pitzer L., 1975, Eur. J. Biochem., 51:415-427).

[2] = system: overexpressed 3-phosphoglycerate-dehydrogenase in strain 13032pZ1serA; test: Inhibition of the overexpressed 3-phosphoglycerate-dehydrogenase by L-serine in strain 13032pZ1serA; conditions: 10 mM L-serine, 5 minutes of incubation at 30° C.
Protocol: as §1
(§2) In the following tests were made whether the C-terminus foreshortened mutant serAΔ197 was no longer blocked by L-serine. For that purpose initially the inhibition of the 3-phosphoglycerate-dehydrogenase of the wild type was investigated in cell-free extracts of C. glutamicum by L-serine based upon the above described enzyme tests. For that purpose to the test bath were added 1, 5 and 10 mM L-serine and were incubated for 5 minutes at 30° C. The reaction was then started by the addition of 15 mM […]. […]

[3] = system: C-terminal foreshortened 3-phosphoglycerate-dehydrogenase mutant (serAΔ197) in strain 13032pZ1serAΔ197; test: Inhibition of the overexpressed 3-phosphoglycerate-dehydrogenase by L-serine in strain 13032pZ1serAΔ197
Protocol: as §1, §2

[4] = system: 3-phosphoglycerate-dehydrogenase; test: 3-phosphoglycerate-dehydrogenase enzyme test of strains overexpressing serA or shortened serA alleles
Protocol: The plasmids pziserA, pZiserAΔ79, pZiserAΔ188), pZiserAΔ197, pZiserAΔ205 and pZiserAΔ211 were introduced by electroporation individually into C. glutamicum. As a control, the media plasmid pZ1 was also electroporated into C. glutamicum ATCC 13032. The thus obtained strains 13032pZ1, 13032pZ1serA, 13032pZiserAΔ79, 13032pZiserAΔ188, 13032pZiserAΔ197, 13032pZiserAΔ205 and 13032pZiserAΔ211 were analyzed for overexpression of the 3-phosphoglycerate-dehydrogenase by means of is the 3-phosphoglycerate-dehydrogenase enzyme test. For this purpose the […] strains were activated in complex medium (CgIII=2.5 g NaCl, 10 g bacto-peptone, 10 g bacto-yeast extract, pH 7.4 with 2% glucose) and the minimal medium CGXII and each was separately seeded from the preculture. The medium was identical with the medium CGXII described by Keilhauer et al (Journal of Bacteriology (1993) 175: 5593-5603) but containing additionally 25 μg/mL of kanamycin.
The cells were harvested in the exponential growth phase at OD600 of 5 to 8 and washed twice in 100 mM Tris-HCl, pH 7.5. The cell pellets were then frozen at −20° C. until disintegration. […]
With these test results a specific activity of about 150 mU/mg protein can be determined for the wild-type 3-phosphoglycerate-dehydrogenase activity. […]

| Molecule | Relative 3-Phosphoglycerate-Dehydrogenase Activity ([1]; 1 mM L-serine, 5 minute incubation at 30° C.) [%] | Relative 3-Phosphoglycerate-Dehydrogenase Activity ([1]; 1 mM L-serine, without incubation) [%] | Relative 3-Phosphoglycerate-Dehydrogenase Activity ([1]; 5 mM L-serine, 5 minute incubation at 30° C.) [%] | Relative 3-Phosphoglycerate-Dehydrogenase Activity ([1]; 5 mM L-serine, without incubation) [%] | Relative 3-Phosphoglycerate-Dehydrogenase Activity ([1]; 10 mM L-serine, 5 minute incubation at 30° C.) [%] | Relative 3-Phosphoglycerate-Dehydrogenase Activity ([1]; 10 mM L-serine, without incubation) [%] | Relative 3-Phosphoglycerate-Dehydrogenase Activity [2] [%] | L-serine inhibition of the foreshortened mutant (in words) [3] | Relative 3-Phosphoglycerate-Dehydrogenase Activity ([3]; 10 mM L-serine, 5 minutes of incubation at 30° C.) [%] | share of the wild type activity ([4]; compared with overexpressed wild type) | overexpression / increase in specific 3-phosphoglycerate-dehydrogenase activity ([4]; with respect to the wild type protein) [fold] |
| --- | --- | --- | --- | --- | --- | --- | --- | --- | --- | --- | --- |
| N[C@@H](CO)C(=O)O [L-Serine, L-serine] | 96 | 106 | 82 | 112 | 56 | 104 | 34 | no longer was significantly limited | 95 | – | – |
| B1 | – | – | – | – | – | – | – | – | – | more than 60% | 10 |
